As usually defined, the EC50 is the concentration that produces a half-maximal response.

In test [1] the test system is HIV. As to conditions: HIV-infected patients, in combination with nucleoside reverse transcriptase inhibitors; cited from earlier work.
Test [2] deals with T1, wildtype HIV-1 protease (Human immunodeficiency virus type 1 group M subtype B, UniProt P04585).
T1 construct: the wildtype HIV-1 protease (which was expressed in Escherichia coli); made in house; host or cells: Escherichia coli
The test is described as follows: Assay for inhibition of microbial expressed HIV protease (Pepcleav). To be noted: wild type HIV-1 protease expressed in E. coli, peptide substrate, pH 5.5; mean of at least two independent experiments; read-out: Pepcleav. The format is biochemical. Summed up:
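Cleavage of 400 μM peptide substrate Val-Ser-Gln-Asn-(βnaphthyl)Ala-Pro-Ile-Val by 20 pM wild-type enzyme (E. coli-expressed) ran 1 h at 30 °C after 30 min inhibitor preincubation, pH 5.5 acetate buffer. Inhibition derived from product peak area by C18 LC with multiple-reaction-monitoring MS after formic acid quench.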

The test system of test [3] is HIV-1 (H9IIIB strain). The test is described as follows: Antiviral acute infection assay in cell culture (Spread). It counts as cell-based. As to conditions: HIV-1 H9IIIB infection of MT-4 human T-lymphoid cells in 10% FBS, mean of at least two independent experiments. The text has this: Antiviral Assays in Cell Culture (“Spread”)
Acute Infection Assay (“Spread”) data were generated using HIV-1 (H9IIIB strain) infection of MT-4 human T-lymphoid cells in 10% FBS, and according to the methods disclosed by J. P. Vacca et al, “L-735,524: An orally bioavailable human immunodeficiency virus type 1 protease inhibitor,” Proc. Natl. Acad. Sci. USA, Vol. 91, pp. 4096-4100 (April 1994).

[4] abbreviates: Human immunodeficiency virus 1, T-lymphoid.

With `CC(C)(C)NC(=O)[C@@H]1CN(Cc2cccnc2)CCN1C[C@@H](O)C[C@@H](Cc1ccccc1)C(=O)N[C@H]1c2ccccc2C[C@H]1O` [Indinavir, indinavir], in test [1], the “effect on HIV viral loads and CD4 cell counts” value is “highly effective in reducing HIV viral loads and increasing CD4 cell counts”.
For the compound `N[C@H](C(=O)Nc1cncc(F)c1CC[C@@H]1CN[C@H](COC(=O)NC2CCCOC2)CO1)C(c1ccc(F)cc1)c1ccc(F)cc1` (stereo partly drawn) [Example 253, 4-fluoro-β-(4-fluorophenyl)-N-(5-fluoro-4-{2-[(2R,5S)-5-{[(tetrahydro-2H-pyran-3-ylcarbamoyl)oxy]methyl}morpholin-2-yl]ethyl}pyridin-3-yl)-L-phenylalaninamide], in test [2], the IC50 is 7.7 nM. The EC50 in test [3] (setting [4]) was found to be 24 nM.
`N[C@H](C(=O)Nc1cncc(F)c1CC[C@@H]1CN[C@H](COC(=O)NCC(F)(F)F)CO1)[C@H](c1ccc(F)cc1)c1ccc(Cl)c(F)c1` [Example 221, (βR)-β-(4-chloro-3-fluorophenyl)-4-fluoro-N-(5-fluoro-4-{2-[(2R,5S)-5-({[(2,2,2-trifluoro-ethyl)carbamoyl]oxy}methyl)morpholin-2-yl]ethyl}pyridin-3-yl)-L-phenylalaninamide]: the IC50 in test [2] was 1.1 nM. The compound also displayed an EC50 in test [3] (setting [4]) of 22 nM.
`O=C(C[C@H](c1ccc(F)cc1)c1ccc(Br)cc1)Nc1cccc(F)c1CC[C@@H]1CN[C@H](COC(=O)NCC(F)(F)F)CO1` [Example 155, {(3S,6R)-6-[2-(2-{[(3R)-3-(4-bromophenyl)-3-(4-fluorophenyl)propanoyl]amino}-6-fluoro-phenyl)ethyl]morpholin-3-yl}methyl (2,2,2-trifluoroethyl)carbamate]: the IC50 in test [2] amounted to 6.1 nM. In test [3] (setting [4]), this compound had an EC50 of 58 nM.
As to `CNC(=O)OC[C@@H]1CO[C@H](CCc2c(F)cncc2NC(=O)[C@@H](N)C(c2ccc(F)cc2)c2ccc(F)cc2)CN1` [Example 205, 4-fluoro-N-(5-fluoro-4-{2-[(2R,5S)-5-{[(methylcarbamoyl)oxy]methyl}morpholin-2-yl]ethyl}pyridin-3-yl)-β-(4-fluorophenyl)-L-phenylalaninamide], the IC50 in test [2] is 24 nM. The same compound registered an EC50 in test [3] (setting [4]) of 58 nM.
Turning to `N[C@H](C(=O)Nc1cc(F)ccc1CC[C@@H]1CN[C@H](COC(=O)NCC(F)F)CO1)C(c1ccccc1)c1ccccc1` [Example 237, N-(2-{2-[(2R,5S)-5-({[(2,2-difluoroethyl)carbamoyl]oxy}methyl)morpholin-2-yl]ethyl}-5-fluorophenyl)-β-phenyl-L-phenylalaninamide], in test [2], the IC50 came to 69 nM. This compound also displayed an EC50 in test [3] (setting [4]) of 190 nM.
On the same counts, the results for `N[C@H](C(=O)Nc1cncc(F)c1CC[C@@H]1CN[C@H](COC(=O)NCc2ccc3ccccc3n2)CO1)C(c1ccc(F)cc1)c1ccc(F)cc1` [Example 243, {(3S,6R)-6-[2-(3-fluoro-5-{[4-fluoro-β-(4-fluorophenyl)-L-phenylalanyl]amino}pyridin-4-yl)ethyl]morpholin-3-yl}methyl (quinolin-2-ylmethyl)carbamate] are 24 nM and 240 nM.
For `N[C@H](C(=O)Nc1cccc(F)c1CC[C@@H]1CN[C@H](COC(=O)NCC(F)(F)F)CO1)[C@H](c1ccc(F)cc1)c1cccc(Cl)c1` [Example 257, (βR)-β-(3-chlorophenyl)-4-fluoro-N-(3-fluoro-2-{2-[(2R,5S)-5-({[(2,2,2-trifluoroethyl)carbamoyl]oxy}methyl)morpholin-2-yl]ethyl}phenyl)-L-phenylalaninamide] the same measures were 5.1 nM and 51 nM.
As for `COC(=O)N[C@H](C(=O)Nc1cncc(F)c1CC[C@@H]1CN[C@H](COC(=O)NCC(F)(F)F)CO1)C(c1cccc(F)c1)c1cccc(F)c1` [Example 280, 3-fluoro-β-(3-fluorophenyl)-N-(5-fluoro-4-{2-[(2R,5S)-5-({[(2,2,2-trifluoroethyl)carbamoyl]oxy}methyl)morpholin-2-yl]ethyl}pyridin-3-yl)-Nα-(methoxycarbonyl)-L-phenylalaninamide], the IC50 in test [2] was 1 nM. Moreover, the EC50 in test [3] (setting [4]) stood at 15 nM.
With `COC(=O)N[C@H](C(=O)Nc1cncc(F)c1CC[C@@H]1CN[C@H](COC(=O)NCC(F)(F)F)CO1)[C@H](c1ccccc1)c1ccc(Cl)cc1` [Example 107, (βR)-β-(4-Chlorophenyl)-N-(5-fluoro-4-{2-[(2R,5S)-5-({[(2,2,2-trifluoroethyl)carbamoyl]oxy}methyl)morpholin-2-yl]ethyl}pyridin-3-yl)-Nα-(methoxycarbonyl)-L-phenylalaninamide], the IC50 in test [2] turned out to be 0.3 nM. Also, the half-maximal effective concentration (EC50) in test [3] (setting [4]) was 11 nM.
On the same counts, the results for `COC(=O)N[C@H](C(=O)Nc1cccc(F)c1CC[C@@H]1CN[C@H](COC(=O)NCC(F)(F)F)CO1)[C@H](c1ccc(F)cc1)c1ccc2ccccc2c1` [Example 289] are 16 nM and 310 nM.
With `N[C@H](C(=O)Nc1cncc(F)c1CC[C@@H]1CN[C@H](COC(=O)NCC(F)(F)F)CO1)[C@H](c1ccc(F)cc1)c1cccc(F)c1` (stereo in doubt) [Example 92], the IC50 in test [2] was 4.4 nM. The compound also had an EC50 in test [3] (setting [4]) of 43 nM.
Take `N[C@H](C(=O)Nc1c(Cl)cccc1OC[C@@H]1CN[C@H](COC(=O)NCC(F)(F)F)CO1)C(c1ccc(F)cc1)c1ccc(F)cc1` [Example 261, N-(2-chloro-6-{[(2S,5S)-5-({[(2,2,2-trifluoroethyl)carbamoyl]oxy}methyl)morpholin-2-yl]methoxy}phenyl)-4-fluoro-β-(4-fluorophenyl)-L-phenylalaninamide]: in test [2], the IC50 came to 4.3 nM. Moreover, in test [3], the response was half-maximal at 170 nM (EC50).
Consider `CS(=O)(=O)c1cccc([C@@H](CC(=O)Nc2cccc(F)c2CC[C@@H]2CN[C@H](COC(=O)NCC(F)(F)F)CO2)c2ccc(Cl)cc2)c1` [Example 164, [(3S,6R)-6-{2-[2-({(3S)-3-(4-chlorophenyl)-3-[3-(methylsulfonyl)phenyl]propanoyl}amino)-6-fluorophenyl]ethyl}morpholin-3-yl] methyl (2,2,2-trifluoroethyl)carbamate], for which, in test [2], the IC50 came to 3.4 nM. In addition, in test [3] (setting [4]), the EC50 was determined as 63 nM.
For `O=C(C[C@@H](c1ccc(F)cc1)C1CCCCC1)Nc1cncc(F)c1CC[C@@H]1CN[C@H](COC(=O)NCC(F)(F)F)CO1` [Example 148, {(3S,6R)-6-[2-(3-{[(3R)-3-cyclohexyl-3-(4-fluorophenyl)propanoyl]amino}-5-fluoropyridin-4-yl)ethyl]morpholin-3-yl}methyl (2,2,2-trifluoroethyl)carbamate] the same measures were 22 nM and 150 nM.
With `N[C@H](C(=O)Nc1cncc(F)c1CC[C@@H]1CNC(COC(=O)NCC(F)(F)F)CO1)[C@@H](c1ccc(F)cc1)c1cccc(Cl)c1` (stereo in doubt) [Example 93, (2S,3S)-2-Amino-3-(3-chlorophenyl)-3-(4-fluorophenyl)-N-(5-fluoro-4-(2-((2R,5R)-5-(2,2,2-trifluoroethylaminocarbonyloxymethyl)morpholine-2-yl)ethyl)pyridin-3-yl)propanamide], the IC50 in test [2] stood at 1.7 nM. A half-maximal response in test [3] (setting [4]) (EC50) required 52 nM.
As for `N[C@H](C(=O)Nc1cncc(F)c1CC[C@@H]1CN[C@H](COC(=O)NC[C@H]2CCCO2)CO1)C(c1ccc(F)cc1)c1ccc(F)cc1` [Example 215, 4-fluoro-β-(4-fluorophenyl)-N-[5-fluoro-4-(2-{(2R,5S)-5-[({[(2R)-tetrahydrofuran-2-ylmethyl]carbamoyl}oxy)methyl]morpholin-2-yl}ethyl)pyridin-3-yl]-L-phenylalaninamide], the IC50 in test [2] was determined as 3.5 nM. Moreover, the EC50 in test [3] (setting [4]) was determined as 25 nM.
For `COC(=O)N[C@H](C(=O)Nc1cncc(F)c1CC[C@@H]1CN[C@H](COC(=O)NCC(F)(F)F)CO1)[C@H](c1ccc(F)cc1)c1ccc(C(F)(F)F)cc1` [Example 286] the same measures were 4.6 nM and 37 nM.
Regarding `N[C@H](C(=O)Nc1cccc(F)c1CC[C@@H]1CN[C@H](COC(=O)NCC(F)(F)F)CO1)[C@@H](c1ccc(F)cc1)c1cc(F)cc(F)c1` [Example 251, (βS)-3,5-difluoro-β-(4-fluorophenyl)-N-(3-fluoro-2-{2-[(2R,5S)-5-({[(2,2,2-trifluoroethyl)carbamoyl]oxy}methyl)morpholin-2-yl]ethyl}phenyl)-L-phenylalaninamide], the IC50 in test [2] was 8.2 nM. In test [3] (setting [4]), this compound came in with an EC50 of 32 nM.
For `CCC(CO)NC(=O)OC[C@@H]1CO[C@H](CCc2c(F)cncc2NC(=O)CC(c2ccc(F)cc2)c2ccc(F)cc2)CN1` (stereo partly drawn) [Example 165, {(3S,6R)-6-[2-(3-{[3,3-bis(4-fluorophenyl)propanoyl]amino}-5-fluoropyridin-4-yl)ethyl]morpholin-3-yl}methyl [1-(hydroxy-methyl)propyl]carbamate] the same measures were 4.5 nM and 40 nM.

Values taken from US9315475B2 (MERCK SHARP & DOHME CORP., priority 2011, dated 2016).
